Values of other authors, collected in patent US7097855B1, “Transdermal thermal polymerization” (Massachusetts Institute of Technology, priority 2000, dated 2006).

Legend:
[1] = at 20° C.

SMILES: CC(C)(N=NC(C)(C)C1=NCCN1)C1=NCCN1.Cl.Cl [AZODIA HCl, 2,2′-azobis-(N,N′-dimethyleneisobutyramidine) dihydrochloride]
- LD50 (oral, rat), female (rat; female): 2800 mg/kg
- LD50 (oral, rat), male (rat; male): 3200 mg/kg
- water solubility [1]: 35.2 g/100 g solvent
